Data taken from patent US8541588B2, “Sulfonamide derivatives” (Pfizer Limited, priority 2009, dated 2013).
pIC50: −log10 of the molar value.

Molecular target: T1, Nav1.7 (or SCN9A) channel; HEK cells stably transfected with hSCN9A (Homo sapiens, UniProt Q15858)
T1 construct: expressed in transfected cells
Experiment: Nav1.7 block, PatchXpress 7000 automated whole-cell voltage clamp, estimated IC50 (EIC50)
Format: cell-based
Conditions: PatchXpress platform; hSCN9A HEK cells held at V1/2 of inactivation; estimated IC50

T1 sequence (Q15858 whole entry): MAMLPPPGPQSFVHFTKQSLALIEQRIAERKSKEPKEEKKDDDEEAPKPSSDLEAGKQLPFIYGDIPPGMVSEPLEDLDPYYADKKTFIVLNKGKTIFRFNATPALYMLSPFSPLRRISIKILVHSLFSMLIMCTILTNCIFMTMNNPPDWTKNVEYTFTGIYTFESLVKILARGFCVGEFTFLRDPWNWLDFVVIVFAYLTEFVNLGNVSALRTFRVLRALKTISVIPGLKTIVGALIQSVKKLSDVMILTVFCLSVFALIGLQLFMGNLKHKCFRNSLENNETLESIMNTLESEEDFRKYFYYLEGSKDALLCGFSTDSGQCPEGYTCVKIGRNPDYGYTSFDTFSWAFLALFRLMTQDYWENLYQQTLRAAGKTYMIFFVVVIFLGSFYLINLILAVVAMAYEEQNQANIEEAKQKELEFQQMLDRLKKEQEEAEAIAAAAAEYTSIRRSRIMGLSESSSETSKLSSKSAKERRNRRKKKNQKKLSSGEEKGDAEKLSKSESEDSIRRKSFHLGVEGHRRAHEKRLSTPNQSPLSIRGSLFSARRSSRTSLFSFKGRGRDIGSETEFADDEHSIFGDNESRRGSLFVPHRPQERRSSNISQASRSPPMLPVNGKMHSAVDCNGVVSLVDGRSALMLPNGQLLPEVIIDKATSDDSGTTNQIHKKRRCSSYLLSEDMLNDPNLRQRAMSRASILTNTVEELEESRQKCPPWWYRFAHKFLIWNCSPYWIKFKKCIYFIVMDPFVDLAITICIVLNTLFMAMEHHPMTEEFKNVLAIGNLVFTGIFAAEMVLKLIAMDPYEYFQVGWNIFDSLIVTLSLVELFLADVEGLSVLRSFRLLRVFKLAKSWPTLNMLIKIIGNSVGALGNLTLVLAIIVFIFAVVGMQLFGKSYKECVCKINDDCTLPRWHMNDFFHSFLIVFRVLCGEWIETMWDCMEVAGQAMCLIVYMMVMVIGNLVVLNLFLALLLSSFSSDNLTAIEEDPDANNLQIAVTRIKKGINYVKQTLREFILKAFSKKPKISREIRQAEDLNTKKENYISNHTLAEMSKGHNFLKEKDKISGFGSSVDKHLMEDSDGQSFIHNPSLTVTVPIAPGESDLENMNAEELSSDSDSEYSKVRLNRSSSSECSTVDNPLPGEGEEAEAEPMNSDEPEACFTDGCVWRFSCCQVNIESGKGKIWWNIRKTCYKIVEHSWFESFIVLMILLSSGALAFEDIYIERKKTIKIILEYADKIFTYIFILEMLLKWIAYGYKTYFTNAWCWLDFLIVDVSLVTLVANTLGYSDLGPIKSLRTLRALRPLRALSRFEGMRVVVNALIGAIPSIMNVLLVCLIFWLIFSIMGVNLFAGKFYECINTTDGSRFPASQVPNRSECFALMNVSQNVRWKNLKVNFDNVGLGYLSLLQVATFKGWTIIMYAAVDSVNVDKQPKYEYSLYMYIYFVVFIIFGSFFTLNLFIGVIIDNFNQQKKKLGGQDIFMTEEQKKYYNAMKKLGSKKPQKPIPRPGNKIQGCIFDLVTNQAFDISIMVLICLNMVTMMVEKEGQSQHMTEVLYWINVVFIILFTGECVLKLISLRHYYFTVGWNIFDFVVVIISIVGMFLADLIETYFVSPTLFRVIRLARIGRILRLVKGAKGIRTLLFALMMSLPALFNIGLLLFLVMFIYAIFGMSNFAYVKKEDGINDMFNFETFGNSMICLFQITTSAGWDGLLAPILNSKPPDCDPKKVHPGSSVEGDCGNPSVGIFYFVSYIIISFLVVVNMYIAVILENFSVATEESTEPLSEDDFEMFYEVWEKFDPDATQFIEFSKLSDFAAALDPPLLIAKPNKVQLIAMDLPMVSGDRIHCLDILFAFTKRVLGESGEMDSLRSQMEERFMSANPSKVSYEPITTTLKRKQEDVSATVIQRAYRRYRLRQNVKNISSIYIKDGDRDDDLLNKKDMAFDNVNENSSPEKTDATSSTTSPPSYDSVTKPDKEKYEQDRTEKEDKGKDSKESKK

| SMILES | pIC50 |
| --- | --- |
| CC(C)(C)n1ccc(-c2cc(F)ccc2Oc2ccc(S(=O)(=O)Nc3nccs3)c(F)c2)n1 [Example 212, 4-(2-(1-tert-butyl-1H-pyrazol-3-yl)-4-fluorophenoxy)-2-fluoro-N-(thiazol-2-yl)benzenesulfonamide] | 4.81 |
| O=S(=O)(Nc1nccs1)c1ccc(Oc2ccc(F)cc2-c2ccn[nH]2)cc1F [Example 213, 2-fluoro-4-(4-fluoro-2-(1H-pyrazol-5-yl)phenoxy)-N-(thiazol-2-yl)benzenesulfonamide] | 5.80 |
| O=S(=O)(Nc1nccs1)c1ccc(Oc2nc(Cc3ccc(Cl)cc3)cs2)cc1F [Example 214, 4-[4-(4-chloro-benzyl)-thiazol-2-yloxy]-2-fluoro-N-thiazol-2-yl-benzenesulfonamide] | 5.62 |
| Cn1ccc(-c2cc(Cl)ccc2Oc2ccc(S(=O)(=O)Nc3nccs3)cc2F)n1 [Example 216, 4-(4-chloro-2-(1-methyl-1H-pyrazol-3-yl)phenoxy)-3-fluoro-N-(thiazol-2-yl)benzenesulfonamide] | 6.04 |
| CC(C)(C)n1nccc1-c1cc(F)ccc1Oc1ccc(S(=O)(=O)Nc2nccs2)cc1F [Example 217, 4-(2-(1-tert-butyl-1H-pyrazol-5-yl)-4-fluorophenoxy)-3-fluoro-N-(thiazol-2-yl)benzenesulfonamide] | 6.29 |
| O=S(=O)(Nc1nccs1)c1ccc(Oc2ccc(F)cc2-c2ccn[nH]2)c(F)c1 [Example 218, 3-fluoro-4-(4-fluoro-2-(1H-pyrazol-5-yl)phenoxy)-N-(thiazol-2-yl)benzenesulfonamide] | 6.64 |
| Cn1nccc1-c1cc(Cl)ccc1Oc1ccc(S(=O)(=O)Nc2nccs2)cc1F [Example 219, 4-(4-chloro-2-(1-methyl-1H-pyrazol-5-yl)phenoxy)-3-fluoro-N-(thiazol-2-yl)benzenesulfonamide] | 7.70 |
| O=S(=O)(Nc1nccs1)c1ccc(Oc2ccc(Cl)cc2-c2ccnn2Cc2ccccc2)c(F)c1 [Example 220, 4-(2-(1-benzyl-1H-pyrazol-5-yl)-4-chlorophenoxy)-3-fluoro-N-(thiazol-2-yl)benzenesulfonamide] | 6.82 |
| CCOC(=O)Cn1nccc1-c1cc(F)ccc1Oc1ccc(S(=O)(=O)Nc2nccs2)cc1F [Example 221, ethyl 2-(5-(5-fluoro-2-(2-fluoro-4-(N-thiazol-2-ylsulfamoyl)phenoxy)phenyl)-1H-pyrazol-1-yl)acetate] | 6.35 |
| Cc1ccc(Oc2ccc(S(=O)(=O)Nc3nccs3)cc2F)c(-c2ccnn2C)c1 [Example 222, 3-fluoro-4-(4-methyl-2-(1-methyl-1H-pyrazol-5-yl)phenoxy)-N-(thiazol-2-yl)benzenesulfonamide] | 7.22 |
| Cc1ccc(Oc2ccc(S(=O)(=O)Nc3nccs3)cc2F)c(-c2c(C)cnn2C(C)(C)C)c1 [Example 223, 4-(2-(1-tert-butyl-4-methyl-1H-pyrazol-5-yl)-4-methylphenoxy)-3-fluoro-N-(thiazol-2-yl)benzenesulfonamide] | 5.82 |
| Cc1ccc(Oc2ccc(S(=O)(=O)Nc3nccs3)cc2F)c(-c2[nH]ncc2C)c1 [Example 224, 3-fluoro-4-(4-methyl-2-(4-methyl-1H-pyrazol-5-yl)phenoxy)-N-(thiazol-2-yl)benzenesulfonamide] | 6.11 |
| O=S(=O)(Nc1nccs1)c1ccc(Oc2ccc(F)cc2-c2ccnn2CC(F)(F)F)c(F)c1 [Example 225, 3-fluoro-4-(4-fluoro-2-(1-(2,2,2-trifluoroethyl)-1H-pyrazol-5-yl)phenoxy)-N-(thiazol-2-yl)benzenesulfonamide] | 6.37 |
| Cn1nccc1-c1cc(Br)ccc1Oc1ccc(S(=O)(=O)Nc2nccs2)cc1F [Example 226, 4-(4-bromo-2-(1-methyl-1H-pyrazol-5-yl)phenoxy)-3-fluoro-N-(thiazol-2-yl)benzenesulfonamide] | 7.52 |
| O=S(=O)(Nc1nccs1)c1ccc(Oc2ccc(Cl)cc2-c2ccnn2-c2ccccc2)c(F)c1 [Example 227, 4-(4-chloro-2-(1-phenyl-1H-pyrazol-5-yl)phenoxy)-3-fluoro-N-(thiazol-2-yl)benzenesulfonamide] | 7.52 |
